Measured values as given in PubChem BioAssay AID1330 (NMMLSC, 2008).
Calls of active or inactive are those of the source. No rule for the calls is given here.

These compounds were tested against Bcl-2-like protein 2 (Homo sapiens) (UniProt Q92843) (assay: Bcl-W/Bim binding regulators – biochemical, multiplexed, bead-based flow cytometry, fluorescence, dose response (AID 1330)).
Chain of Bcl-2-like protein 2 (Homo sapiens) (Q92843 whole entry, looked up): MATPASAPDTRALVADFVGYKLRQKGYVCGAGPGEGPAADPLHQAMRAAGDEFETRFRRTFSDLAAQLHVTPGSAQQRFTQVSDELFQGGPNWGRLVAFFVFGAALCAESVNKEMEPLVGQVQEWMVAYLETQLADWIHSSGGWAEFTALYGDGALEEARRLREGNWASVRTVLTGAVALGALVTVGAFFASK

EC50	Structure (SMILES)
3.52 µM	O=[N+]([O-])c1ccc(N/N=C/c2ccc(O)c(O)c2O)c(S(=O)(=O)N2CCOCC2)c1
inactive	O=C(N/N=C/c1ccc(O)c(O)c1O)/C(=C/c1ccc([N+](=O)[O-])cc1)NC(=O)c1ccccc1

Second part, the compound before the results:

Structure (SMILES)	EC50
COc1cccc(/C=N/Nc2nn3cnnc3c3ccccc23)c1	inactive
CCC(=O)N(CC)C1=C(O)c2ccccc2C(=O)C1=O	inactive
COc1cccc(/C=N/Nc2nn3cnnc3c3ccccc23)c1O	inactive
